Several values for one entry are separate records, joined by “and”; a condition that tells them apart may be missing. Equal entries are not always repeated. Where two headings read alike, the source gives them in different places.
How the values were obtained:
[1] = molecular target: T1, neuraminidase from Clostridium perfringens (Clostridium perfringens, UniProt A0A0H2YQR1); format: biochemical; settings: for Ki: Dixon plot, read-out: Ki (inhibition constant); for Inhibition Mode: Lineweaver–Burk plot; for IC50: fluorescent substrate 100 μM, 0.2 unit/mL enzyme, 50 mM sodium acetate buffer, read-out: IC50 against bacterial neuraminidase (BNA)
T1 sequence (A0A0H2YQR1 42-694 limits assumed): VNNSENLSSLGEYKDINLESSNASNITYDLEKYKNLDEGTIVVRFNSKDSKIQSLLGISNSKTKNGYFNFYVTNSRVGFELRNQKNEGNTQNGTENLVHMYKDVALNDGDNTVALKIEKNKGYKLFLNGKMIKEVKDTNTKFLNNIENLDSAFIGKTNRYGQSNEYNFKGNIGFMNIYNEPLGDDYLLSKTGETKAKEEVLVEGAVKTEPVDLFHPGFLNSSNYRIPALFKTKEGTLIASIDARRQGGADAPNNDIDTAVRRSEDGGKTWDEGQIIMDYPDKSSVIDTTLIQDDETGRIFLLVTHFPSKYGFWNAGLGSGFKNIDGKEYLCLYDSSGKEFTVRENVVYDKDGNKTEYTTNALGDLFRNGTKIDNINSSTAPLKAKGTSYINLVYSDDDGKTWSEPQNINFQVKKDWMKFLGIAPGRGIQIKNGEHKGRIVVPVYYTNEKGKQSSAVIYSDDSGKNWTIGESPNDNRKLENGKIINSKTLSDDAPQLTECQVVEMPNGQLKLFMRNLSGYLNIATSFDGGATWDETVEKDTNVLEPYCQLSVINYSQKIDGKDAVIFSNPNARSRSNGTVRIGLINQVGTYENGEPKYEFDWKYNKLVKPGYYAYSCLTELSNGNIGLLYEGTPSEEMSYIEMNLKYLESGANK

[2] = molecular target: T1, neuraminidase from Clostridium perfringens; format: binding; settings: for KSV (Stern–Volmer quenching constant): excitation 290 nm, emission near 360 nm
[3] = fluorescence quenching, without substrate

What does the source list for 3,4′-O-dimethyl quercetin [Compound 2]?
Ki [1]: 24.7 ± 0.5 µM; Inhibition Mode [1]: Noncompetitive; IC50 [1]: 24.3 µM and 25.8 µM; KSV (Stern–Volmer quenching constant) ([2]; without substrate): 1440 L/mol; KA (binding constant) [2, 3]: 39940 L/mol; n (number of binding sites) [2, 3]: 1.1063

How did the Ki [1] turn out when 3,7-O-dimethyl quercetin [Compound 3] was run?
Its Ki is 22.4 ± 0.9 µM.

And the “Inhibition Mode” value [1]?
Its value is “Noncompetitive”.

And the IC50 [1]?
Its IC50 is 25.8 µM and 24.3 µM.

What about the “KSV (Stern–Volmer quenching constant)” value ([2]; without substrate) of the same compound?
Its value is 1530 L/mol.

What about the “KA (binding constant)” value [2, 3] of the same compound?
The value was 38180 L/mol.

What about the “n (number of binding sites)” value [2, 3] of the same compound?
The value was 1.0959.

Which “Inhibition Mode” value [1] does the source give for `COc1c(-c2ccc(O)c(O)c2)oc2cc(O)cc(O)c2c1=O` [Compound 1, 3-O-methyl quercetin] here?
The value was “Noncompetitive”.

What about the “KA (binding constant)” value [2] of the same compound?
Its value is 0.05105.

And the “KSV (Stern–Volmer quenching constant)” value ([2]; without substrate)?
The value was 2520 L/mol.

What about the “n (number of binding sites)” value [2, 3] of the same compound?
Its value is 1.2106.

How did the “Inhibition Mode” value [1] turn out when `COc1cc(O)c2c(=O)c(OC)c(-c3ccc(OC)c(O)c3)oc2c1` [Compound 4, 3,7,4′-O-trimethyl quercetin] was run?
The value was “Noncompetitive”.

What about the “KA (binding constant)” value [2] of the same compound?
The value was 0.00021.

What about the “KSV (Stern–Volmer quenching constant)” value ([2]; without substrate) of the same compound?
The value was 360 L/mol.

And the “n (number of binding sites)” value [2, 3]?
Its value is 0.7071.

Source: article PMC10386613 (Molecules, 2023)
